# Test system: human primary chondrocytes
# Experiment: TGF-β1 treatment of human primary chondrocytes, expression by RT-PCR and Western blotting
# Format: cell-based
# Description: In detail, the human primary chondrocytes of Example 4-1 were treated with TGF-β1, and an expression level thereof was measured by RT-PCR as in Examples 1-2 and 1-3 and Western blotting.
# [1] = co-treatment with TGF-β1 (5 ng/ml), compared with single treatment with TGF-β1, FIG. 9B
# [2] = TGF-β1 5 ng/ml for 24 hours, 48 hours, or 72 hours, FIG. 9
Compound,Acan expression increased by TGF-β1 [1],inhibitory effect on MAST4 expression (of TGF-β1) [1],MAST4 expression [2],expression of extracellular matrix factors [2]
Cc1cccc(-c2[nH]c(CNc3ccccc3F)nc2-c2ccc3ncnn3c2)n1 [TEW-7197],suppressed,decreased,,
TGF-β1: growth factor that reduces MAST4 expression in human chondrocytes,,,suppressed,increased

# Reference: patent US11180573B2, “Extracellular matrix-producing composition using MAST4 gene and preparation method therefor” (priority 2017, dated 2021)
